Results from patent US12103920B2, “Cereblon binding compounds, compositions thereof, and methods of treatment therewith” (Celgene Corporation, priority 2020, dated 2024).
Where a name gives a salt, the structure may show the parent alone.

Molecular target: T1, AR protein in VCaP cells (Homo sapiens, UniProt P10275)
T1 construct: endogenous in cells; host or cells: VCaP cells
T1 sequence (P10275 1-920): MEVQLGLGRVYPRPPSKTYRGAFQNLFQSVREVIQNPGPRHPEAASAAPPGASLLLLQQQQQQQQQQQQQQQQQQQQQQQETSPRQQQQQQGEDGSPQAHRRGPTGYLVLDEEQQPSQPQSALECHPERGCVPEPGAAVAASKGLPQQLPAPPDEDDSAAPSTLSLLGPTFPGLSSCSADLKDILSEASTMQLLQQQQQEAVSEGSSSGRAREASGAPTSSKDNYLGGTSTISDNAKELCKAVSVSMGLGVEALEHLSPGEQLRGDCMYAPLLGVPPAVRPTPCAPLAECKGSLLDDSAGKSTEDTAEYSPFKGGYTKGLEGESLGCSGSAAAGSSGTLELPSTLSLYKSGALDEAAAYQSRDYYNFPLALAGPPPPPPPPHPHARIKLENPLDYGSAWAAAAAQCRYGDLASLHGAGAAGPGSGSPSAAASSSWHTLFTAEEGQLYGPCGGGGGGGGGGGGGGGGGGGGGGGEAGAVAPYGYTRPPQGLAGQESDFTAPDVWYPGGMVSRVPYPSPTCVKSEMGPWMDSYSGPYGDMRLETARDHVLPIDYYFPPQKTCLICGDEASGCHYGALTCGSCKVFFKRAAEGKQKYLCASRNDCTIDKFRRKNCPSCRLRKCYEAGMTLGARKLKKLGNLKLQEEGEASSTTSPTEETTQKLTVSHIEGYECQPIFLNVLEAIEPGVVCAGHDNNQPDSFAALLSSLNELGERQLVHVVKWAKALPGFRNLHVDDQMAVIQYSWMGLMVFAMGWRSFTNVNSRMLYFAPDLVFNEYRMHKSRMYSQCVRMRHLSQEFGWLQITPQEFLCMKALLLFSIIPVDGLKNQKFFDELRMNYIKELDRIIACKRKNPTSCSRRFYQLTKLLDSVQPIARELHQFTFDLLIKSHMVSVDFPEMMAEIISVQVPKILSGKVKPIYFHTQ
Assay: VCAP AR Degradation Assay
Format: cell-based
Conditions: 24 h, AR ELISA; for DC50: concentration at 50% of DMSO control (50% AR degradation); for Y: lowest measured AR level normalized to DMSO control
How it was run: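 VCaP cells in DMEM with 8% FBS were treated 24 h at 37° C with a 10-point 1:3 series (top final 5 μM; 0.1% DMSO control). AR in lysates was measured by sandwich ELISA, normalized to DMSO as percent of control; DC50, EC50 and Ymin came from a four-parameter logistic fit.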

Row | SMILES | DC50 | Y
1 | CC1(C)C(=O)N(c2cnc(C#N)c(C(F)(F)F)c2)C(=S)N1[C@H]1CC[C@H](OCCN2CCN(CC(=O)Nc3cc(Cl)cc(NC4CCC(=O)NC4=O)c3)[C@@H](C(F)(F)F)C2)CC1 (stereo partly drawn) [Cmpd 26, N-(3-Chloro-5-((2,6-dioxopiperidin-3-yl)amino)phenyl)-2-((R)-4-(2-(((trans)-4-(3-(6-cyano-5-(trifluoromethyl)pyridin-3-yl)-5,5-dimethyl-4-oxo-2-thioxoimidazolidin-1-yl)cyclohexyl)oxy)ethyl)-2-(trifluoromethyl)piperazin-1-yl)acetamide] | 5 to 10 nM | * (0<Y≤15%)
2 | CC1(C)C(=O)N(c2ccc(C#N)c(C(F)(F)F)c2)C(=S)N1[C@H]1CC[C@H](OCCN2CCN(CC(=O)Nc3cc(Cl)cc(NC4CCC(=O)NC4=O)c3)[C@@H](C(F)(F)F)C2)CC1 (stereo partly drawn) [Cmpd 27, N-(3-Chloro-5-((2,6-dioxopiperidin-3-yl)amino)phenyl)-2-((R)-4-(2-(((trans)-4-(3-(4-cyano-3-(trifluoromethyl)phenyl)-5,5-dimethyl-4-oxo-2-thioxoimidazolidin-1-yl)cyclohexyl)oxy)ethyl)-2-(trifluoromethyl)piperazin-1-yl)acetamide] | 10 to 100 nM | * (0<Y≤15%)
3 | CC1(C)C(=O)N(c2cnc(C#N)c(C(F)(F)F)c2)C(=S)N1[C@H]1CC[C@H](OCCCN2CCN(CC(=O)Nc3cccc(NC4CCC(=O)NC4=O)c3)[C@@H](C(F)(F)F)C2)CC1 (stereo partly drawn) [Cmpd 28, 2-((R)-4-(3-(((trans)-4-(3-(6-cyano-5-(trifluoromethyl)pyridin-3-yl)-5,5-dimethyl-4-oxo-2-thioxoimidazolidin-1-yl)cyclohexyl)oxy)propyl)-2-(trifluoromethyl)piperazin-1-yl)-N-(3-((2,6-dioxopiperidin-3-yl)amino)phenyl)acetamide] | ≤ 5 nM | * (0<Y≤15%)
4 | CC1(C)C(=O)N(c2ccc(C#N)c(C(F)(F)F)c2)C(=S)N1[C@H]1CC[C@H](CCCN2CCN(CC(=O)Nc3cccc(NC4CCC(=O)NC4=O)c3)[C@@H](C(F)(F)F)C2)CC1 (stereo partly drawn) [Cmpd 29, 2-((R)-4-(3-((trans)-4-(3-(4-Cyano-3-(trifluoromethyl)phenyl)-5,5-dimethyl-4-oxo-2-thioxoimidazolidin-1-yl)cyclohexyl)propyl)-2-(trifluoromethyl)piperazin-1-yl)-N-(3-((2,6-dioxopiperidin-3-yl)amino)phenyl)acetamide] | 5 to 10 nM | * (0<Y≤15%)
5 | CC1(C)C(=O)N(c2ccc(C#N)c(C(F)(F)F)c2)C(=S)N1[C@H]1CC[C@H](OCCCN2CCN(CC(=O)Nc3cccc(NC4CCC(=O)NC4=O)c3)[C@@H](C(F)(F)F)C2)CC1 (stereo partly drawn) [Cmpd 30, 2-((R)-4-(3-(((trans)-4-(3-(4-Cyano-3-(trifluoromethyl)phenyl)-5,5-dimethyl-4-oxo-2-thioxoimidazolidin-1-yl)cyclohexyl)oxy)propyl)-2-(trifluoromethyl)piperazin-1-yl)-N-(3-((2,6-dioxopiperidin-3-yl)amino)phenyl)acetamide] | 5 to 10 nM | * (0<Y≤15%)
6 | CC1(C)C(=O)N(c2cnc(C#N)c(C(F)(F)F)c2)C(=S)N1[C@H]1CC[C@H](OCCN2CCN(CC(=O)Nc3cc(C#N)cc(NC4CCC(=O)NC4=O)c3)[C@@H](C(F)(F)F)C2)CC1 (stereo partly drawn) [Cmpd 31, N-(3-Cyano-5-((2,6-dioxopiperidin-3-yl)amino)phenyl)-2-((R)-4-(2-(((trans)-4-(3-(6-cyano-5-(trifluoromethyl)pyridin-3-yl)-5,5-dimethyl-4-oxo-2-thioxoimidazolidin-1-yl)cyclohexyl)oxy)ethyl)-2-(trifluoromethyl)piperazin-1-yl)acetamide] | ≤ 5 nM | * (0<Y≤15%)
7 | C[C@@H]1C[C@H](OCCC[C@H]2CC[C@H](N3C(=S)N(c4ccc(C#N)c(C(F)(F)F)c4)C(=O)C3(C)C)CC2)C[C@H](C)N1CC(=O)Nc1cccc(NC2CCC(=O)NC2=O)c1 (stereo partly drawn) [Cmpd 32, 2-((2R,4r,6S)-4-(3-((trans)-4-(3-(4-Cyano-3-(trifluoromethyl)phenyl)-5,5-dimethyl-4-oxo-2-thioxoimidazolidin-1-yl)cyclohexyl)propoxy)-2,6-dimethylpiperidin-1-yl)-N-(3-((2,6-dioxopiperidin-3-yl)amino)phenyl)acetamide] | 10 to 100 nM | ** (15%<Y≤20%)
8 | C[C@@H]1C[C@H](OCCC[C@H]2CC[C@H](N3C(=S)N(c4cnc(C#N)c(C(F)(F)F)c4)C(=O)C3(C)C)CC2)C[C@H](C)N1CC(=O)Nc1cccc(NC2CCC(=O)NC2=O)c1 (stereo partly drawn) [Cmpd 33, 2-((2R,4r,6S)-4-(3-((trans)-4-(3-(6-Cyano-5-(trifluoromethyl)pyridin-3-yl)-5,5-dimethyl-4-oxo-2-thioxoimidazolidin-1-yl)cyclohexyl)propoxy)-2,6-dimethylpiperidin-1-yl)-N-(3-((2,6-dioxopiperidin-3-yl)amino)phenyl)acetamide hydrochloride] | 5 to 10 nM | ** (15%<Y≤20%)
9 | CC1(C)C(=O)N(c2ccc(C#N)c(C(F)(F)F)c2)C(=S)N1[C@H]1CC[C@H](OCCN2CCN(CC(=O)Nc3cc(C#N)cc(NC4CCC(=O)NC4=O)c3)[C@@H](C(F)(F)F)C2)CC1 (stereo partly drawn) [Cmpd 34, 2-((R)-4-(2-(((trans)-4-(3-(4-Cyano-3-(trifluoromethyl)phenyl)-5,5-dimethyl-4-oxo-2-thioxoimidazolidin-1-yl)cyclohexyl)oxy)ethyl)-2-(trifluoromethyl)piperazin-1-yl)-N-(3-cyano-5-((2,6-dioxopiperidin-3-yl)amino)phenyl)acetamide] | 5 to 10 nM | *** (25%<Y<50%)
10 | C[C@@H]1C[C@H](OCC[C@H]2CC[C@H](N3C(=S)N(c4cnc(C#N)c(C(F)(F)F)c4)C(=O)C3(C)C)CC2)C[C@H](C)N1CC(=O)Nc1cccc(NC2CCC(=O)NC2=O)c1 (stereo partly drawn) [Cmpd 35, 2-((2R,4r,6S)-4-(2-((trans)-4-(3-(6-Cyano-5-(trifluoromethyl)pyridin-3-yl)-5,5-dimethyl-4-oxo-2-thioxoimidazolidin-1-yl)cyclohexyl)ethoxy)-2,6-dimethylpiperidin-1-yl)-N-(3-((2,6-dioxopiperidin-3-yl)amino)phenyl)acetamide hydrochloride] | 10 to 100 nM | * (0<Y≤15%)
11 | C[C@@H]1C[C@H](OCC[C@H]2CC[C@H](N3C(=S)N(c4ccc(C#N)c(C(F)(F)F)c4)C(=O)C3(C)C)CC2)C[C@H](C)N1CC(=O)Nc1cccc(NC2CCC(=O)NC2=O)c1 (stereo partly drawn) [Cmpd 36, 2-((2R,4r,6S)-4-(2-((trans)-4-(3-(4-Cyano-3-(trifluoromethyl)phenyl)-5,5-dimethyl-4-oxo-2-thioxoimidazolidin-1-yl)cyclohexyl)ethoxy)-2,6-dimethylpiperidin-1-yl)-N-(3-((2,6-dioxopiperidin-3-yl)amino)phenyl)acetamide] | 10 to 100 nM | ** (15%<Y≤20%)
12 | C[C@@H]1CN(CCC[C@H]2CC[C@H](N3C(=S)N(c4ccc(C#N)c(C(F)(F)F)c4)C(=O)C3(C)C)CC2)C[C@H](C)N1CC(=O)Nc1cc(F)cc(NC2CCC(=O)NC2=O)c1 (stereo partly drawn) [Cmpd 38, 2-((2R,6S)-4-(3-((trans)-4-(3-(4-Cyano-3-(trifluoromethyl)phenyl)-5,5-dimethyl-4-oxo-2-thioxoimidazolidin-1-yl)cyclohexyl)propyl)-2,6-dimethylpiperazin-1-yl)-N-(3-((2,6-dioxopiperidin-3-yl)amino)-5-fluorophenyl)acetamide] | 5 to 10 nM | * (0<Y≤15%)
